For series [1], the system named is Cynomolgus monkey. Description: Ex vivo inhibition of PAR-1 in cynomolgus monkey blood assessed as inhibition of haTRAP-induced platelet aggregation at 1 mg/kg, po up to 24 hrs by aggregometry. The format is functional, organism-based. Also on record: dose 1 mg/kg. Particulars: Macaca fascicularis.
A short description of series [2]: AUC (0 to 6 hrs) in rat plasma at 10 mg/kg, po. The format is ADME, organism-based. Also on record: time < 6 hr, dose 10 mg/kg, route oral.
Series [3] addresses T1, Proteinase-activated receptor 1 (Homo sapiens, UniProt P25116).
T1 sequence (P25116 whole entry): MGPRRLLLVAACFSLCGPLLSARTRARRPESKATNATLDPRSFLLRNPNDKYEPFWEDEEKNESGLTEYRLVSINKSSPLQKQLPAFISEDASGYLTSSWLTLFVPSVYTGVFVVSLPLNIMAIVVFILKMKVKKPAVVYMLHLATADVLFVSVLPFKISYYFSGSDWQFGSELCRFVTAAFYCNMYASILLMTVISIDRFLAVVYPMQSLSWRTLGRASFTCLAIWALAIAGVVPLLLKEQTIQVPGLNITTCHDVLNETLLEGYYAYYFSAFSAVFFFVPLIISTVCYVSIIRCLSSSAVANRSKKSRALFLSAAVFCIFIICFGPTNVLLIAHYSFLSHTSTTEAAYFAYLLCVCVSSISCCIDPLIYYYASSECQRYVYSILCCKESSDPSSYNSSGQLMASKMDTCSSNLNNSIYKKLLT
The series can be described thus: Displacement of [3H]haTRAP from PAR-1 isolated from human platelets by liquid scintillation counting analysis.

Series [4] is described as follows: Aqueous solubility of the compound. It counts as physicochemical.

Activity calls are given as the source filed them. No cut-off for these calls is given here.

Consider `CCOC(=O)N[C@@H]1CC[C@@H]2[C@@H](C1)C[C@@]1(O)C(=O)O[C@H](C)[C@H]1[C@H]2/C=C/c1ccc(-c2cccc(F)c2)cn1`, for which the result in series [1] was Active. This compound also showed an AUC(0-t) at 6 h in series [2] of 7430 ng·h/mL. In series [3], this compound came in with an inhibition constant Ki of 19.5 nM.

`C[C@H](N)C(=O)NC[C@@H]1CC[C@@H]2[C@@H](C1)C[C@H]1C(=O)O[C@H](C)[C@H]1[C@H]2/C=C/c1ccc(-c2cccc(F)c2)cn1`: the Ki in series [3] came to 32 nM.

In series [3], `C[C@H]1OC(=O)[C@@H]2C[C@@H]3C[C@H](CN)CC[C@H]3[C@H](/C=C/c3ccc(-c4cccc(F)c4)cn3)[C@H]12` registered a Ki of 20 nM.

Compound `CCNC(=O)NC[C@@H]1CC[C@@H]2[C@@H](C1)C[C@H]1C(=O)O[C@H](C)[C@H]1[C@H]2/C=C/c1ccc(-c2cccc(F)c2)cn1` returned an exposure AUC(0-t) at 6 h in series [2] of 567 ng·h/mL. Also, the inhibition constant Ki in series [3] was determined as 12.9 nM.

In series [4], `CCOC(=O)N1CC[C@@H]2[C@H](C[C@H]3C(=O)O[C@H](C)[C@H]3[C@H]2/C=C/c2ccc(-c3cccc(F)c3)cn2)C1` displayed a solubility of less than 2 µM.

Consider `COC(=O)NC[C@@H]1CC[C@@H]2[C@@H](C1)C[C@H]1C(=O)O[C@H](C)[C@H]1[C@H]2/C=C/c1ccc(-c2cccc(F)c2)cn1`, for which the outcome in series [1] was inactive. The AUC(0-t) at 6 h in series [2] came out at 4860 ng·h/mL. The affinity in series [3], expressed as Ki, was 5 nM.

As to `C[C@H]1OC(=O)[C@@H]2C[C@@H]3C[C@H](C(=O)N4CC[C@H](O)C4)CC[C@H]3[C@H](/C=C/c3ccc(-c4cccc(C(F)(F)F)c4)cn3)[C@H]12`, the Ki in series [3] came to 384 nM.

The compound `C[C@H]1OC(=O)[C@@H]2C[C@@H]3C[C@H](CO)CC[C@H]3[C@H](/C=C/c3ccc(-c4cccc(F)c4)cn3)[C@H]12` registered an exposure AUC(0-t) at 6 h in series [2] of 2670 ng·h/mL. The same compound yielded an inhibitory constant (Ki) in series [3] of 8 nM.

Consider `CCS(=O)(=O)NC[C@@H]1CC[C@@H]2[C@@H](C1)C[C@H]1C(=O)O[C@H](C)[C@H]1[C@H]2/C=C/c1ccc(-c2cccc(F)c2)cn1`, for which the inhibition constant (Ki) in series [3] amounted to 14.5 nM.

In series [2], `C[C@H]1OC(=O)[C@@H]2C[C@@H]3C[C@H](CNS(C)(=O)=O)CC[C@H]3[C@H](/C=C/c3ccc(-c4cccc(F)c4)cn3)[C@H]12` displayed an AUC(0-t) at 6 h of 7760 ng·h/mL. The compound further came in with an inhibitory constant (Ki) in series [3] of 15 nM.

In the case of `C[C@H]1OC(=O)[C@@H]2C[C@@H]3C[C@H](C(=O)Nc4cccnc4)CC[C@H]3[C@H](/C=C/c3ccc(-c4cccc(C(F)(F)F)c4)cn3)[C@H]12`, the affinity in series [3], expressed as Ki, was 239 nM.

Consider `C[C@H]1OC(=O)[C@@H]2C[C@@H]3C[C@H](CNC(=O)C4CCNCC4)CC[C@H]3[C@H](/C=C/c3ccc(-c4cccc(F)c4)cn3)[C@H]12`, for which the AUC(0-t) at 6 h in series [2] was determined as 5 ng·h/mL. The inhibition constant (Ki) in series [3] amounted to 13.5 nM.

In turn, `CC(C)NC(=O)[C@@H]1CC[C@@H]2[C@@H](C1)C[C@H]1C(=O)O[C@H](C)[C@H]1[C@H]2/C=C/c1ccc(-c2cccc(C(F)(F)F)c2)cn1` came in with a Ki in series [3] of 31 nM.

As for `C[C@H]1OC(=O)[C@@H]2C[C@@H]3C[C@H](CNC(=O)[C@@H]4CCCN4)CC[C@H]3[C@H](/C=C/c3ccc(-c4cccc(F)c4)cn3)[C@H]12`, affinity in series [3] was put at a Ki of 24 nM.

In series [3], `CNC(=O)[C@@H]1CC[C@@H]2[C@@H](C1)C[C@H]1C(=O)O[C@H](C)[C@H]1[C@H]2/C=C/c1ccc(-c2cccc(C(F)(F)F)c2)cn1` yielded an inhibition constant (Ki) of 25 nM.

Regarding `CCOC(=O)N[C@@H]1CC[C@@H]2[C@@H](C1)C[C@H]1C(=O)O[C@H](C)[C@H]1[C@H]2/C=C/c1ccc(-c2cccc(F)c2)cn1` [VORAPAXAR], the AUC(0-t) at 6 h in series [2] is 3060 ng·h/mL. Moreover, in series [3], the Ki was found to be 8.5 nM.

On to `CCC(=O)NC[C@@H]1CC[C@@H]2[C@@H](C1)C[C@H]1C(=O)O[C@H](C)[C@H]1[C@H]2/C=C/c1ccc(-c2cccc(F)c2)cn1`, for which the AUC(0-t) at 6 h in series [2] was determined as 7730 ng·h/mL. Moreover, the Ki in series [3] amounted to 12.5 nM.

In the case of `C[C@H]1OC(=O)[C@@H]2C[C@@H]3C[C@H](C(=O)NCCO)CC[C@H]3[C@H](/C=C/c3ccc(-c4cccc(C(F)(F)F)c4)cn3)[C@H]12`, the affinity in series [3], expressed as Ki, was 98 nM.

`CCNC(=O)[C@@H]1CC[C@@H]2[C@@H](C1)C[C@H]1C(=O)O[C@H](C)[C@H]1[C@H]2/C=C/c1ccc(-c2cccc(C(F)(F)F)c2)cn1` gave an inhibitory constant (Ki) in series [3] of 35 nM.

Take `CC(=O)NC[C@@H]1CC[C@@H]2[C@@H](C1)C[C@H]1C(=O)O[C@H](C)[C@H]1[C@H]2/C=C/c1ccc(-c2cccc(F)c2)cn1`: the AUC(0-t) at 6 h in series [2] was found to be 3810 ng·h/mL. In series [3], this compound registered an inhibition constant Ki of 12 nM.

`C[C@H]1OC(=O)[C@@H]2C[C@@H]3C[C@H](C(=O)N4CC[C@@H](O)C4)CC[C@H]3[C@H](/C=C/c3ccc(-c4cccc(C(F)(F)F)c4)cn3)[C@H]12`: in series [3], the inhibition constant Ki was determined as 180 nM.

Compound `CCOC(=O)NC[C@@H]1CC[C@@H]2[C@@H](C1)C[C@H]1C(=O)O[C@H](C)[C@H]1[C@H]2/C=C/c1ccc(-c2cccc(F)c2)cn1` showed an AUC(0-t) at 6 h in series [2] of 1210 ng·h/mL. Also, the affinity in series [3], expressed as Ki, was 14 nM.

Regarding `C[C@H]1OC(=O)[C@@H]2C[C@@H]3C[C@H](C(=O)Nc4ccncc4)CC[C@H]3[C@H](/C=C/c3ccc(-c4cccc(C(F)(F)F)c4)cn3)[C@H]12`, in series [3], the inhibition constant Ki was 140 nM.

What is called AUC(0-t) is exposure summed from dosing to a finite time, without extrapolation to infinity. Broadly, the Ki is the dissociation constant of the complex between target and ligand, obtained from inhibition or displacement. A word on the solubility: it is the concentration that dissolves in the medium under given conditions.

For the origin of these results see ChEMBL document CHEMBL3108665, “Himbacine-derived thrombin receptor antagonists: c7-aminomethyl and c9a-hydroxy analogues of vorapaxar” (ACS Med Chem Lett, 2014).
